Results as given in patent US20240316008A1, “TREATMENT OF SYSTEMIC IMMUNE ACTIVATION SYNDROMES” (TRANQUIS THERAPEUTICS, INC., priority 2020, published 2024).

How the values were obtained:
[1] = system: sepsis; assay: Mouse model of sepsis / hyperinflammation (virus followed by LPS, as described in Wang); conditions: mice, intravenous, various doses
Protocol: Briefly, mice are anesthetized with a ketamine/xylazine mixture. A virus, such as a coronavirus, influenza virus, rhinovirus, respiratory syncytial virus, metapneumovirus, adenovirus, or a boca virus, is administered. The virus may be administered intranasally dropwise.
Next, LPS diluted in a buffer, such as PBS, is injected intraperitoneally at specific doses.
To provide comparators for assessing the effects of TQS-168 and its analogs, groups of positive control mice are treated with one or more antibodies against pro-inflammatory cytokines of interest: anti-NK1.1 antibody (PK136; Bio X Cell) diluted in PBS is injected at 100 μg per injection (100 μL) retro-orbitally concurrently with each challenge; anti-IFNγ antibody (XMG1.2, Bio X Cell) is diluted in PBS and injected at 500 μg per injection (100 μL) retro-orbitally concurrently with each challenge; anti-IL6R (15A7.10 mg/kg; Bio X Cell), anti-TNFα (XT3.11, 500 μg per injection; Bio X Cell), anti-IFNαR (MAR1-5A3, 10 mg/kg; Bio X Cell), and anti-IL1β (B122, 500 μg per injection; Bio X Cell) are injected retro-orbitally. For a negative control, isotype antibody is injected retro-orbitally.
The pro-inflammatory cytokines can be measured using the ELISA assay described in Example 1.

[2] = system: IL-6; assay: IL-6 secretion from LPS-stimulated BV2 cells (CBA assay); type: cell-based, murine; conditions: 100 ng/ml LPS, 1 μM-20 μM, 24 hours
Protocol: LPS was used to induce cytokine secretion from BV-2 cells. Cells were incubated with TQS-168 at various concentrations to assess whether TQS-168 could suppress the LPS-promoted release of various cytokines from in vitro cell cultures. Cytokine secretion was measured by cytometric bead array (CBA) fluorescence-activated cell sorting (FACS). Briefly, a vial of BV2 frozen stock (1 million cells per ml in complete medium) was thawed into 10 mL of complete medium per vial for a total of 4 vials. The vials were then centrifuged at 1800 rpm for 3 minutes to wash away freezing media. The four vials were then pooled into 25 mL of complete medium. TQS-168 was prepared in DMSO. Cells were incubated for 24 hours in the presence of medium (negative control), LPS (positive control), DMSO+LPS (positive control, controlling additionally for presence of DMSO in the TQS-168 stock solution), or LPS+TQS-168 at final concentrations of 1 μM, 5 μM, 10 μM, and 20 μM. After the well plates were incubated overnight for 24 hours, they were centrifuged at 1800 rpm for 5 minutes. Next, 150 μl from each well was transferred to a new set of plates, of which 50 μl was used for CBA. The plates were then centrifuged with the cells, followed by addition of 100 μl of DAPI (50 ml of PBS+10 μl of DAPI stock at 1:5000 dilution). […]

[3] = system: TNF-α; assay: LPS-induced TNF-α production of human PBMC (CBA assay); type: cell-based; conditions: 100 ng/ml LPS, 24 hours, compared to no treatment
Protocol: Peripheral blood mononuclear cells (PBMC) from 4 different healthy volunteers were used in this study. Fresh blood samples were collected at Stanford Blood Center and processed for PBMC isolation with Ficoll gradient. PBMC samples were stored in liquid nitrogen at […] for subsequent analysis of TNF-α production. For TNF-α stimulation, frozen PBMC samples were thawed and rested at 37° C. before cells were stimulated with 100 ng/ml of LPS for 24 hours. DMSO (1:1000 final dilution) or TQS-168 in DMSO (1:1000 final dilution) at various concentrations was added to cell cultures of LPS-stimulated PBMC to evaluate the effects of T-168 on TNF-α production of human primary myeloid cells. After 24 hours stimulation, supernatant samples from various conditions were collected and TNF-α concentrations in the supernatants analyzed with cytometric bead array (CBA) assay per protocols from BD Biosciences. TNF-α was quantified by median fluorescent intensity reading (MFI). Samples were analyzed directly after staining with LSRII flow cytometer.

[4] = system: 12 human primary cell-based systems; assay: Eurofins BioMAP Diversity PLUS panel
[5] = system: neurodegenerative diseases; conditions: murine models of Parkinson's disease, Alzheimer's disease, ALS; cited from earlier work
[6] = system: TNFα; assay: TNFα secretion from LPS-stimulated BV2 cells (CBA assay); type: cell-based, murine; conditions: 100 ng/ml LPS, 24 hours; for TNFα production by LPS-stimulated BV-2 myeloid cells: compared to control
Protocol: LPS was used to induce cytokine secretion from BV-2 cells. Cells were incubated with TQS-168 at various concentrations to assess whether TQS-168 could suppress the LPS-promoted release of various cytokines from in vitro cell cultures. Cytokine secretion was measured by cytometric bead array (CBA) fluorescence-activated cell sorting (FACS).
Briefly, a vial of BV2 frozen stock (1 million cells per ml in complete medium) was thawed into 10 mL of complete medium per vial for a total of 4 vials. The vials were then centrifuged at 1800 rpm for 3 minutes to wash away freezing media. The four vials were then pooled into 25 mL of complete medium. TQS-168 was prepared in DMSO.
Cells were incubated for 24 hours in the presence of medium (negative control), LPS (positive control), DMSO+LPS (positive control, controlling additionally for presence of DMSO in the TQS-168 stock solution), or LPS+TQS-168 at final concentrations of 1 μM, 5 μM, 10 μM, and 20 μM.
After the well plates were incubated overnight for 24 hours, they were centrifuged at 1800 rpm for 5 minutes. Next, 150 μl from each well was transferred to a new set of plates, of which 50 μl was used for CBA. The plates were then centrifuged with the cells, followed by addition of 100 μl of DAPI (50 ml of PBS+10 μl of DAPI stock at 1:5000 dilution). The plates were then incubated in the dark for 5 minutes, followed by addition of 100 μl of PBS and centrifuged at 1800 rpm for 5 minutes. Finally, the plates were resuspended in 200 μl of PBS and tested.
Multiplexed cytometric bead array (CBA) assay was performed according to standard techniques to detect presence in the cell culture medium of secreted murine TNFα, IL-6, IFNγ, IL-12, monocyte chemoattractant protein 1 (MCP-1), and IL-10.
A total of 4-11 replicates of BV2 cultures in different conditions were investigated. Frozen BV2 microglia cell line was thawed and propagated in complete media (RPMI, 10% heat inactivated FBS, 1% L-glutamine, 1% Pen-Strep) until growth rate reached log phase.
Cells were stimulated with 100 ng/ml of LPS for 24 hours. […]

[7] = BioMAP report, profile at 6.7 μM, 2.2 μM, 740 nM
[8] = profile at 6.7 μM, 2.2 μM, 740 nM
[9] = profile at 20 μM, 6.7 μM, 2.2 μM, 740 nM

## CC(C)(C)c1ccc(-c2nc3ccccc3[nH]2)cc1 [TQS-168, 2-(4-tert-butylphenyl)-1H-benzimidazole]
[1]
  circulating concentrations of pro-inflammatory cytokines: effective in reducing
  hyperinflammatory symptoms: effective in reducing
[2]
  LPS-induced secretion of IL-6: reduce
[3]; 5 μM
  suppression of TNFα production: statistically significant suppression
[3]; 20 μM
  suppression of TNFα production: statistically significant suppression
[4]; 6.7 μM
  decrease in sIgG, sIL-17F, sTNFα from B and T cells: greatest decrease
[4]; 20 μM
  cytotoxicity to endothelial cells: cytotoxic
[4]; BioMAP Diversity PLUS panel
  highest nontoxic concentration tested: 6.7 µM
[4]; [7]
  tissue remodeling activity MMP-1: increased
  tissue remodeling activity αSMA: decreased
[4]; [8]
  activity at non-cytotoxic concentrations: active
  immune markers sIgG, sIL-17-F, sTNFα (from B and T cells, not monocytes): decreased
  inflammatory markers sPGE2 (from monocytes), IL-8: decreased
  proliferation of endothelial cells, T cells, B cells & fibroblasts: anti-proliferative
  sIL-6: increased
  tissue remodeling markers MMP1, alpha-SMA: modulated
[4]; [9]
  VCAM-1: increased
  immune markers sIgG, sIL-17A, sIL-17F, sIL-2, sTNFα, sIL-6 (from B and T cells, not monocytes): decreased
[5]
  disease severity: reduce
  myeloid-mediated inflammation: suppress
[6]; 5 μM
  TNFα production by LPS-stimulated BV-2 myeloid cells: suppress
[6]; 20 μM
  TNFα production by LPS-stimulated BV-2 myeloid cells: suppress
[6]; BV2 cells, 1 μM-20 μM
  LPS-induced secretion of TNFα: reduce
